The test system of series [1] is mice subjected to bilateral renal pedicle clamping. In words: Ischemic AKI by bilateral renal pedicle clamping (BUN, creatinine, survival). The format is in vivo, C57BL/6J mice. Particulars: 28 min bilateral pedicle clamping. The source says:
All animals were maintained under the guidance and policies of the Boston University Animal Core facility using National Institutes of Health (NIH) and Institutional Animal Care and Use Committee guidelines. Male and female C57BL/6J mice were purchased from Jackson Laboratory (Bar Harbor, ME), and they were housed and bred at the Boston University Animal Core facility under license number AN-15024. […] Animas were handled in a manner consistent with the NIH guide for their care and use under Institutional Animal Care and Use Committee approval.
Mice were subjected to bilateral renal pedicle clamping after being anesthetized with 2,2,2-tribromoethanol. […] 13,28,29 Slight variation in the clamp time was required to achieve similar degrees of renal dysfunction in the relatively large number of animals studied. The clamp was then removed, and reperfusion was confirmed by visual inspection of the kidneys. Sham ischemia was performed by encircling each renal pedicle with a nonocclusive ligature.
For in vitro testing in primary human PTECs, peptides ([…]) were tested that replicate the Bax domain responsible for binding NPM,34 or two peptides designed to interfere with NPM function were compared with a random nonspecific sequence of the same length (control). Peptides intended to interfere with NPM function overlap key phosphorylation sites located at the NPM amino terminus (peptide 2) or carboxy terminus (peptide 3) detected by mass spectrometry. To improve cell uptake, all peptides contained a cell-penetrating sequence13. For in vivo experiments, a renal-targeting sequence (NLS) was added to enhance renal peptide uptake.35 Peptides were commercially synthesized (Biomatik, Wilmington, DE) J Am Soc Nephrol 30: ccc-ccc, 2018 Nucleophosmin in AKI 3www.jasn.org BASIC RESEARCHas follows: NPM-Bax blocking peptide: Ac-KKKRKV-(bA)-[…]-COOH (SEQ ID NO: 8); peptide 2: AC-PKKKRKV-(bA)-[…]-COOH (SEQ ID NO: 9); and peptide 3: AC-PKKKRKV-(bA)-ESFKK-QEKTPKTPKGPSSVED-IKAK-COOH (SEQ ID NO: 10). […] A total of 42 control and 56 experimental animals were studied.
Transient exposure to metabolic inhibitors replicates ischemia in vivo by activating Bax and causing cell death.13,29,36-38 Cell viability was assayed using a modified colorimetric technique (MTTassay).37 The number of surviving cells is expressed as a percentage of viable control cells detected at baseline. Serum BUN and creatinine levels were measured in tail vein blood samples for 7 days after ischemia using QuantiChrom BUN or creatinine assay kits (BioAssay Systems, Hayward, CA) according to the manufacturer's instructions.

A further series deals with PTEC. Put plainly: Toxicity of pharmacologic agents in PTEC. The format is cell-based. Particulars: exposure to the IC50 dose for 48-72 hr; data not shown. An excerpt: The inventors have also tested pharmacologic agents that disrupt NPM-Bax at specific steps in the cell death pathway (outlined in FIG. 11). These agents include geronylgeronylacetone (GGA), a potent Hsp70 inducer86, avrainvillamide, and NSC34888437. […] The inventors recently reported that GGA induces Hsp70 in murine PTEC and in the intact murine kidney. Hsp70 markedly reduces NPM-Bax complex formation during ischemic stress by 2 distinct mechanisms: a nucleolar-restricted Hsp70 mutant limits NPM translocation into the cytosol, whereas a cytosol restricted Hsp70 mutant sequesters […].

Consider `CC(=O)CC/C=C(\C)CC/C=C(\C)CC/C=C(\C)CCC=C(C)C` [GGA, geronylgeronylacetone, reference compound], for which, in series [1], the Animal survival result was “all survived” and the “Mean peak BUN” value came to 100 m/dl. Besides, the “PTEC morphology and toxicity” value with PTEC is given as “does not alter PTEC morphology or cause significant toxicity”.

These data come from patent publication US12018058B2, “Compositions and methods for diagnosing and/or treating kidney injury” (Boston Medical Center Corporation, priority 2018, dated 2024).
